In US11859208B2, “Methods of treating cancer using cell based therapies” (Emory University, priority 2016, dated 2024):
“Also recorded” adds a separate entry of the source.

What was measured:
[1] = system: senescent T cells from a patient with lymphoma; assay: 10 day in vitro expansion of senescent lymphoma patient T cells with anti-CD3/CD28 beads, flow cytometric analysis; type: cell-based, human; details: for fraction of senescent T cells that lacked both CD27 and CD28: control 55.2%; for numbers of effector memory T cells (Tem): 10-day cultures; for in vitro expansion of senescent T cells: anti CD3/CD28 beads, single agents or in combination
Description: Monocytes were depleted from the T cell sample, as monocytes are known to inhibit T cell expansion in cultures containing anti-CD3/CD28 beads. The effect of a range of idelalisib concentrations were compared alone and in combination with 3 uM VIP peptide antagonist (VIPhyb) or 1 ug/ml mast cell chymase, an enzyme that degrades endogenous VIP on T cell activation, differentiation and proliferation. Numbers of viable T cells were measured during a 10 day in vitro cultures as well as the T cell differentiation and activation profiles, focusing on the relative numbers of T cells with a senescent phenotype in which co-stimulatory receptors CD27 and CD28 are both absent (CD27− CD28−), to an activated phenotype, in which either CD27, CD28, or both co-stimulatory receptors are present (CD27+CD28+).
Aliquots of frozen patient apheresis products or PBMC from ficolled whole blood were rapidly thawed and rested overnight in complete RPMI 1640 supplemented with 10% fetal bovine serum, 100 U/mL penicillin, 100 μg/mL streptomycin, and 50 μM 2-mercaptoethanol (complete media). The following day, red blood cells were removed from apheresis products by ficoll gradient. The leukocytes were then enriched for T cells using an EasySep human T cell enrichment kit according to manufacturer's instructions. Cells were plated in 200 μL of complete media in each well of a 96 well flat-bottom plate. Compounds were added at the indicated concentrations, and the DMSO concentration was normalized to 0.1% for all wells. Anti-CD3/CD28 beads were added at a 1:1 bead:cell ratio. On day 7 post-stimulation, cells from each treatment were transferred to new media. Fresh compounds and beads were then added, and the cells were cultured for an additional 3 days. On day 10 post-initial stimulation, the beads were removed, and the cells were stained for flow cytometric analysis.
Cells were washed twice in PBS. The cells were also stained using a fixable viability dye. Surface markers were then stained by adding fluorochrome-conjugated antibodies to CD3, CD4, CD8, CD27, CD28, CD45RA, CD45RO, PD-1, and CCR7. To assess proliferation, half the cells were evaluated for expression of Ki67. Ki67 staining was performed using a FoxP3 intracellular staining kit. Just prior to running samples, Accucheck counting beads were added to each tube. Samples were acquired on a BD FACS Aria, and analysis was performed using FlowJo software. Viable cells were used in the analysis. The absolute numbers of cells was calculated for each population according to instructions provided by the manufacturer of the Accucheck counting beads.

E.G7-OVA cells = assay: OVA-expressing lymphoma model: adoptive transfer of T cells expanded with the compounds; type: in vivo, mouse; details: OT-I, OT-II and B6 T cells expanded 3 days with compound, injected intravenously on day 7 of tumor growth
Description: Mice were injected subcutaneously with 5×10^5 E.G7-OVA cells which were allowed to grow for 7 days until a palpable tumor formed. During this period, OT-I, OT-II, and B6 T cells were expanded with CD3/CD28 beads in the presence of IL-2 and the indicated compounds for 3 days. On day 7 of tumor growth, mice were injected intravenously with a combination of expanded OT-I, OT-II, and B6 T cells (2×10^6 OT-I, 1×10^6 OT-II, and 2×10^6 B6 cells) or 2×10^6 B6 T cells as a control. Mice were then monitored for tumor growth which was calculated as (L×W2)/2.

[2] = cited from earlier work
DLBCL patient T cells = assay: DLBCL patient T cell expansion for 14 days with CD3/CD28 beads and IL-2; type: cell-based, human
[3] = system: Bcl-2 in lymphoma patient T cells; assay: Bcl-2 expression in patient T cell expansion cultures (SDS-PAGE, membrane probing); type: cell-based, human; details: lysates on days 7 and 14, actin loading control
Description: Protein lysates from patient T cell expansion cultures were prepared on days 7 and 14. Samples were run on an SDS-PAGE gel prior to transfer to a nitrocellulose membrane. The membrane was then probed for the pro-survival Bcl-2 protein, stripped, and then re-probed for actin as a loading control.

[4] = system: luciferase B6 splenic T cells; assay: One-way mixed lymphocyte reaction (MLR), T-cell proliferation stimulated by alloantigen; type: cell-based, mouse; details: for T-cell proliferation in MLR: luciferase B6 splenic T cells, 3 days with irradiated FVB splenocytes, daily addition, 0-10 mmol/L
Description: Proliferation of luciferase B6 splenic T cells cultured for 3 days in MLR with irradiated FVB splenocytes, with daily addition of VIP and/or VIPhyb to achieve the concentrations shown (0-10 mmol/L).
To explore the role of VIP signaling in allo-immune responses, one-way mixed lymphocyte reactions (MLR) were performed containing VIP and/or the antagonistic VIPhyb peptide.

[5] = cited from earlier work; remark: listed apart in the source
[6] = system: T-cells from the patient with relapsed lymphoma; assay: Sorted T cells of a relapsed lymphoma patient cultured with anti-CD3/anti-CD28 beads (Ki67, PD-1 flow cytometry); type: cell-based, human; details: for T-cell proliferation in subsets lacking CD27 or CD28: sorted subsets, anti-CD3/CD28 beads
Description: Using high-speed cell sorting subsets of T-cells were isolated defined by their levels of CD27 and CD28 expression from the patient with relapsed lymphoma and a healthy control. CD3 positive T-cells with each of the four phenotypes defined by CD27 and CD28 expression were sorted and cultured in vitro in the presence of anti-CD3/anti-CD28 beads. While total T-cells from healthy donors had 100% expression of the Ki67 proliferation marker following four days of culture, the corresponding total T-cell population from the patient with anergic T-cells following treatment for lymphoma had only 90% of T-cells expressing the Ki67 marker.
Following the daily addition of 3 uM VIPhyb to these cultures, the proportion of Ki67 positive T-cells from the anergic lymphoma patient was increased to 100%. […] In contrast, the T-cell subsets lacking expression of either CD27 or CD28 or both markers had impaired proliferated response when incubated with the anti-CD3/CD28 beads.

[7] = inclusion during T cell activation

Question: With `CC[C@H](Nc1ncnc2[nH]cnc12)c1nc2cccc(F)c2c(=O)n1-c1ccccc1` [idelalisib, (S)-2-(1-(9H-purin-6-ylamino)propyl)-5-fluoro-3-phenylquinazolin-4(3H)-one] as the molecule, how does the “fraction of senescent T cells that lacked both CD27 and CD28” value ([1]; 10 nM idelalisib) read?
Answer: The value was 16.1%.

Question: And the “numbers of effector memory T cells (Tem)” value [1]?
Answer: Its value is “increased”.

Question: And the “in vitro expansion of senescent T cells” value [1]?
Answer: Its value is “significantly expanded”.

Question: And the “proportion of T cells co-expressing CD27 and CD28” value ([1]; idelalisib 1 uM or 100 nM, compared to control cultures with no added drug)?
Answer: Its value is “significantly increased”.

Question: What about the “therapeutic efficacy of expanded mouse T cells (tumor growth)” value (E.G7-OVA cells) of the same molecule?
Answer: Its value is “enhances their therapeutic efficacy”.

Question: And the “adverse signs and symptoms in treated patients” value ([2]; human, in vivo)?
Answer: The value was “auto immune-like signs and symptoms including colitis and rash”.

Question: What about the “anti-cancer responses after drug treatment has stopped” value ([2]; human, in vivo) of the same molecule?
Answer: Its value is “continued anti-cancer responses”.

Question: What about the “T-cell activation in patients with CLL” value ([2]; idelalisib treatment) of the same molecule?
Answer: The value was “increased T-cell activation”.

Question: What about the “frequency of CD27+CD28+ cells” value (DLBCL patient T cells) of the same molecule?
Answer: The value was “increases”.

Question: And the “frequency of CD27-CD28- cells” value (DLBCL patient T cells)?
Answer: The value was “decreasing”.

Question: And the “number of viable T cells obtained” value (DLBCL patient T cells; [7])?
Answer: The value was “increases”.

Question: What about the “proportion of naive and central memory cells” value (DLBCL patient T cells; [7]) of the same molecule?
Answer: Its value is “increases”.

Question: What about the “expression of Bcl-2” value [3] of the same molecule?
Answer: The value was “increased”.

Question: For “VIP: (SEQ ID NO: 12) HSDAVFTDNYTRLRKQMAVKKYLNSILN, endogenous polypeptide”, which “T-cell proliferation in MLR” value [4] is on record?
Answer: The value was “decreased Luciferase T-cell proliferation in a dose-dependent manner”.

Question: What about the half-life in vivo [5] of the same molecule?
Answer: Its half-life in vivo is “less than two”.

Question: What does the source list for “VIPhyb: VIP receptor antagonist, hybrid peptide of neurotensin and VIP, (SEQ ID NO: 1) KPRRPYTDNYTRLRKQMAVKKYLNSILN”?
Answer: fraction of senescent T cells that lacked both CD27 and CD28 ([1]; 3 uM VIPhyb): 35.7%; numbers of effector memory T cells (Tem) [1]: increased; in vitro expansion of senescent T cells [1]: significantly expanded; PD-1 expression ([6]; 3 uM VIPhyb, compared with control cultures without VIP antagonist): decreased levels of PD-1 expression; proportion of Ki67 positive T-cells ([6]; daily addition of 3 uM VIPhyb, total T-cells of anergic lymphoma patient, anti-CD3/anti-CD28 beads, 90% without VIPhyb): 100%; T-cell proliferation in subsets lacking CD27 or CD28 [6]: augmented T-cell proliferation; effect on the suppression of T-cell proliferation by VIP ([4]; MLR with VIP and VIPhyb): mitigated the inhibitory effect of the native VIP peptide on T-cell proliferation; also recorded: reversed the suppressive effect of VIP in MLR; T-cell proliferation in MLR [4]: augmented in vitro T-cell proliferation; also recorded: augmented T cell proliferation in vitro; also recorded: increased T-cell proliferation; therapeutic efficacy of expanded mouse T cells (tumor growth) (E.G7-OVA cells): enhances their therapeutic efficacy; frequency of CD27+CD28+ cells (DLBCL patient T cells): increases; frequency of CD27-CD28- cells (DLBCL patient T cells): decreasing; expression of Bcl-2 [3]: increased

B1: mast cell chymase: an enzyme that degrades endogenous VIP; human CMA1 (protein, UniProt P23946 22-247, looked up)
Chymase: IIGGTECKPHSRPYMAYLEIVTSNGPSKFCGGFLIRRNFVLTAAHCAGRSITVTLGAHNITEEEDTWQKLEVIKQFRHPKYNTSTLHHDIMLLKLKEKASLTLAVGTLPFPSQFNFVPPGRMCRVAGWGRTGVLKPGSDTLQEVKLRLMDPQACSHFRDFDHNLQLCVGNPRKTKSAFKGDSGGPLLCAGVAQGIVSYGRSDAKPPAVFTRISHYRPWINQILQAN
Question: Which “fraction of senescent T cells that lacked both CD27 and CD28” value ([1]; 1 μg per ml mast cell chymase) does the source give for B1 here?
Answer: Its value is 37.4%.

Question: What about the “in vitro expansion of senescent T cells” value [1] of the same molecule?
Answer: Its value is “significantly expanded”.

B2: IL 12: IL-12 added to T cell cultures with anti-CD3/CD28 beads (protein, UniProt P29459 23-219; P29460 23-328, looked up)
Interleukin-12 subunit alpha: RNLPVATPDPGMFPCLHHSQNLLRAVSNMLQKARQTLEFYPCTSEEIDHEDITKDKTSTVEACLPLELTKNESCLNSRETSFITNGSCLASRKTSFMMALCLSSIYEDLKMYQVEFKTMNAKLLMDPKRQIFLDQNMLAVIDELMQALNFNSETVPQKSSLEEPDFYKTKIKLCILLHAFRIRAVTIDRVMSYLNAS
Interleukin-12 subunit beta: IWELKKDVYVVELDWYPDAPGEMVVLTCDTPEEDGITWTLDQSSEVLGSGKTLTIQVKEFGDAGQYTCHKGGEVLSHSLLLLHKKEDGIWSTDILKDQKEPKNKTFLRCEAKNYSGRFTCWWLTTISTDLTFSVKSSRGSSDPQGVTCGAATLSAERVRGDNKEYEYSVECQEDSACPAAEESLPIEVMVDAVHKLKYENYTSSFFIRDIIKPDPPKNLQLKPLKNSRQVEVSWEYPDTWSTPHSYFSLTFCVQVQGKSKREKKDRVFTDKTSATVICRKNASISVRAQDRYYSSSWSEWASVPCS
Question: With B2 as the molecule, how does the “T-cell proliferation in subsets lacking CD27 or CD28” value [6] read?
Answer: Its value is “significant impact in increasing the proliferation fraction of T-cells that were CD28 negative but not those that were CD27 negative”.
